From patent publication US20250277012A1 (Protagonist Therapeutics, Inc., priority 2021, published 2025)
Starred links: 1 amine or outer side, 2 acyl side, 3 side chain; linkers in the order of their positions; H or OH if unused. Positions of bridges follow the written chain, without caps; N, C: chain ends. Non-standard residues stand in square brackets, D forms with d. Residues, ends and D or L forms follow the SMILES beside them. Groups on a side chain read outwards from the residue. *: point of attachment. C18 diacid = O=C(O)CCCCCCCCCCCCCCCCC(=O)*; Dip = N[C@H](C(=O)O)C(c1ccccc1)c1ccccc1; γGlu = O=C(O)[C@H](CCC(=O)[*:2])N[*:1]; Palmitoyl = CCCCCCCCCCCCCCCC(=O)*; NMeF = CN[C@@H](Cc1ccccc1)C(=O)O; β3hF = N[C@H](CC(=O)O)Cc1ccccc1; NMeK = CN[C@@H](CCCCN)C(=O)O; Pen = CC(C)(S)[C@H](N)C(=O)O; Isovaleryl = CC(C)CC(=O)*; NMeC = CN[C@@H](CS)C(=O)O; hCys = N[C@@H](CCS)C(=O)O; Dap = NC[C@H](N)C(=O)O; AEEA = NCCOCCOCC(=O)O; Ahx = NCCCCCC(=O)O

What follows are compounds tested against T1, ferroportin (Homo sapiens, UniProt Q9NP59) (assay: FPN activity assay: ferroportin-GFP internalization/degradation in HEK293 cells). Settings: ferroportin-GFP HEK293 cells, at least 18 hours; read-out: FPN IC50.
T1 sequence (Q9NP59 1-571): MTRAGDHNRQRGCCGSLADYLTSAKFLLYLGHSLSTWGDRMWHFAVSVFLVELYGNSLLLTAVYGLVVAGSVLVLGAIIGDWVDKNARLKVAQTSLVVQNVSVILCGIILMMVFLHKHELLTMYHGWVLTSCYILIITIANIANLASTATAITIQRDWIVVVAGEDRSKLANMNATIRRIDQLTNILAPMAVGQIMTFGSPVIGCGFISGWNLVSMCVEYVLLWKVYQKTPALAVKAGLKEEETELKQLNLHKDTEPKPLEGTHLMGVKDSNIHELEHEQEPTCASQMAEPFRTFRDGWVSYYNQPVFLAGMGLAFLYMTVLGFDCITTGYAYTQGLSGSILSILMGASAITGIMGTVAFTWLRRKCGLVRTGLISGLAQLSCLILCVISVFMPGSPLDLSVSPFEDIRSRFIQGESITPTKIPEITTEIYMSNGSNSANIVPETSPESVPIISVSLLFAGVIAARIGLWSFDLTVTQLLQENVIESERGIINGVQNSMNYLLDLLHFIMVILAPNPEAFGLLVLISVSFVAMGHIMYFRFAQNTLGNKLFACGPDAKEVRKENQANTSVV
Type: cell-based
Design: expressed in transfected cells
Description: Following internalization, the ferroporin protein is degraded.
A retro inverse peptide is a peptide with a reversed sequence in all D amino acids. An example is that Hy-Glu-Thr-His-NH2 becomes Hy-DHis-DThr-DGlu-NH2. The EC50 of these reference compounds for ferroportin internalization/degradation was determined according to the FPN activity assay described above. These peptides served as control standards.

DC50 | Structure (SMILES)
> 0.5 µM | CCCCCCCCCCCCCCCC(=O)NCCCCCC(=O)NCCCC[C@H](NC(=O)[C@@H](NC(=O)[C@@H]1CSSC(C)(C)[C@H](N)C(=O)N[C@@H](CCC(=O)O)C(=O)N[C@@H]([C@@H](C)O)C(=O)N[C@@H](Cc2c[nH]cn2)C(=O)N[C@@H](C(c2ccccc2)c2ccccc2)C(=O)N2CCC[C@H]2C(=O)N1)[C@@H](C)CC)C(=O)N[C@H](CC(N)=O)Cc1ccccc1 [Compd 11] (H-[Pen]ETH[Dip]PCIK([Ahx-Palmitoyl])[β3hF]-NH2; disulfide 1-7)
> 0.5 µM | CCCCCCCCCCCCCCCC(=O)NCCCCCC(=O)NCCCC[C@H](NC(=O)[C@@H](NC(=O)[C@@H]1CCSSCC[C@H](N)C(=O)N[C@@H](C(C)C)C(=O)N[C@@H](CCC(=O)O)C(=O)N[C@@H]([C@@H](C)O)C(=O)N[C@@H](Cc2c[nH]cn2)C(=O)N[C@@H](C(c2ccccc2)c2ccccc2)C(=O)N2CCC[C@H]2C(=O)N1)[C@@H](C)CC)C(=O)N[C@H](CC(N)=O)Cc1ccccc1 [Compd 16] (H-[hCys]VETH[Dip]P[hCys]IK([Ahx-Palmitoyl])[β3hF]-NH2; disulfide 1-8)
0.1 to 0.5 µM | CC[C@H](C)[C@H](NC(=O)[C@@H]1CSSC[C@H](NC(=O)[C@@H](NC(=O)[C@H](Cc2c[nH]cn2)NC(=O)[C@@H](NC(=O)[C@H](CCC(=O)O)NC(=O)CC(C)C)[C@@H](C)O)C(c2ccccc2)c2ccccc2)C(=O)N1)C(=O)N[C@H](CCCCN)C(=O)N[C@H](CC(=O)N[C@@H](CCCCNC(=O)COCCOCCNC(=O)COCCOCCNC(=O)CCCCCNC(=O)CCCCCCCCCCCCCCCCC(=O)O)C(=O)N[C@H](CCCCN)C(N)=O)Cc1ccccc1 [Compd 25] (Isovaleryl-ETH[Dip]CCI[dK][β3hF]K([AEEA-AEEA-Ahx-C18 diacid])[dK]-NH2; disulfide 5-6)
> 0.5 µM | CCCCCCCCCCCCCCCC(=O)NCCCCCC(=O)NCCCC[C@H](NC(=O)[C@@H](NC(=O)[C@@H]1CCSSCC[C@H](NC(=O)CC(C)C)C(=O)N[C@@H](CCC(=O)O)C(=O)N[C@@H]([C@@H](C)O)C(=O)N[C@@H](Cc2c[nH]cn2)C(=O)N[C@@H](C(c2ccccc2)c2ccccc2)C(=O)N2CCC[C@H]2C(=O)N1)[C@@H](C)CC)C(=O)N[C@H](CC(N)=O)Cc1ccccc1 [Compd 15] (Isovaleryl-[hCys]ETH[Dip]P[hCys]IK([Ahx-Palmitoyl])[β3hF]-NH2; disulfide 1-7)
0.01 to 0.1 µM | CC(C)CC(=O)N[C@@H](CCC(=O)O)C(=O)N[C@H](C(=O)N[C@@H](Cc1c[nH]cn1)C(=O)N[C@H](C(=O)N1CCC[C@H]1C(=O)N[C@H]1CSSC[C@@H](C(=O)N[C@H](CCCCN)C(=O)N[C@H](CC(=O)N[C@@H](CCCCNC(=O)COCCOCCNC(=O)COCCOCCNC(=O)CCCCCNC(=O)CCCCCCCCCCCCCCCCC(=O)O)C(=O)N[C@H](CCCCN)C(N)=O)Cc2ccccc2)NC1=O)C(c1ccccc1)c1ccccc1)[C@@H](C)O [Compd 26] (Isovaleryl-ETH[Dip]PCC[dK][β3hF]K([AEEA-AEEA-Ahx-C18 diacid])[dK]-NH2; disulfide 6-7)
0.1 to 0.5 µM | CC[C@H](C)[C@H](NC(=O)[C@@H]1CSSC[C@H](NC(=O)[C@H](Cc2c[nH]cn2)NC(=O)[C@@H](NC(=O)[C@H](CCC(=O)O)NC(=O)CC(C)C)[C@@H](C)O)C(=O)N2CCC[C@H]2C(=O)N1)C(=O)N[C@@H](CCCCNC(=O)COCCOCCNC(=O)COCCOCCNC(=O)CCCCCNC(=O)CCCCCCCCCCCCCCCCC(=O)O)C(=O)N[C@H](CC(=O)N[C@H](CCCCN)C(N)=O)Cc1ccccc1 [Compd 20] (Isovaleryl-ETHCPCIK([AEEA-AEEA-Ahx-C18 diacid])[β3hF][dK]-NH2; disulfide 4-6)
0.01 to 0.1 µM | CCCCCCCCCCCCCCCC(=O)NCCCCCC(=O)NCCCC[C@H](NC(=O)C[C@H](Cc1ccccc1)NC(=O)[C@@H](CCCCN)NC(=O)[C@@H]1CSSC[C@H](NC(=O)[C@@H]2CCCN2C(=O)[C@@H](NC(=O)[C@H](Cc2c[nH]cn2)NC(=O)[C@@H](NC(=O)[C@H](CCC(=O)O)NC(=O)CC(C)C)[C@@H](C)O)C(c2ccccc2)c2ccccc2)C(=O)N1)C(=O)N[C@H](CCCCN)C(N)=O [Compd 6] (Isovaleryl-ETH[Dip]PCC[dK][β3hF]K([Ahx-Palmitoyl])[dK]-NH2; disulfide 6-7)
0.1 to 0.5 µM | CC[C@H](C)[C@H](NC(=O)[C@@H]1CSSC[C@H](NC(=O)[C@@H](NC(=O)[C@H](Cc2c[nH]cn2)NC(=O)[C@@H](NC(=O)[C@H](CCC(=O)O)NC(=O)CC(C)C)[C@@H](C)O)C(c2ccccc2)c2ccccc2)C(=O)N1)C(=O)N[C@H](CCCCN)C(=O)N[C@H](CC(=O)N[C@@H](CCCCNC(=O)COCCOCCNC(=O)COCCOCCNC(=O)CC[C@H](NC(=O)CCCCCCCCCCCCCCCCC(=O)O)C(=O)O)C(=O)N[C@H](CCCCN)C(N)=O)Cc1ccccc1 [Compd 34] (Isovaleryl-ETH[Dip]CCI[dK][β3hF]K([AEEA-AEEA-γGlu-C18 diacid])[dK]-NH2; disulfide 5-6)
0.01 to 0.1 µM | CCCCCCCCCCCCCCCC(=O)NCCCCCC(=O)NCCCC[C@H](NC(=O)C[C@H](Cc1ccccc1)NC(=O)[C@H]1CSSC[C@@H](NC(=O)CC(C)C)C(=O)N[C@@H]([C@@H](C)O)C(=O)N[C@@H](Cc2c[nH]cn2)C(=O)N[C@@H](C(c2ccccc2)c2ccccc2)C(=O)N2CCC[C@H]2C(=O)N[C@@H](C)C(=O)N[C@@H]([C@@H](C)CC)C(=O)N1)C(=O)N[C@H](CCCCN)C(N)=O [compound 105] (Isovaleryl-[dC]TH[Dip]PAI[dC][β3hF]K([Ahx-Palmitoyl])[dK]-NH2; disulfide 1-8)
0.001 to 0.01 µM | CCCCCCCCCCCCCCCC(=O)NCCCCCC(=O)NCCCC[C@H](NC(=O)C[C@H](Cc1ccccc1)NC(=O)[C@@H]1CSSCC[C@H](NC(=O)CC(C)C)C(=O)N[C@@H]([C@@H](C)O)C(=O)N[C@@H](Cc2cnc[nH]2)C(=O)N[C@@H](C(c2ccccc2)c2ccccc2)C(=O)N2CCC[C@H]2C(=O)N[C@@H](C)C(=O)N[C@@H]([C@@H](C)CC)C(=O)N1)C(=O)N[C@H](CCCCN)C(N)=O [compound 110] (Isovaleryl-[hCys]TH[Dip]PAIC[β3hF]K([Ahx-Palmitoyl])[dK]-NH2; disulfide 1-8)

Same assay, conditions: ferroportin-GFP internalization/degradation, HEK293 cells; Table 6E; read-out: FPN IC50

DC50 | Structure (SMILES)
0.01 to 0.1 µM | CC(C)CC(=O)N[C@@H](CCC(=O)O)C(=O)N[C@H](C(=O)N[C@@H](Cc1c[nH]cn1)C(=O)N[C@H](C(=O)N1CCC[C@H]1C(=O)N[C@H]1CSSC[C@@H](C(=O)N(C)[C@@H](CCCCNC(=O)COCCOCCNC(=O)COCCOCCNC(=O)[C@H](CN)NC(=O)CCCCCCCCCCCCCCCCC(=O)O)C(=O)N(C)[C@@H](Cc2ccccc2)C(=O)N(C)[C@@H](CCCCN)C(N)=O)N(C)C1=O)C(c1ccccc1)c1ccccc1)[C@@H](C)O [compound 277] (Isovaleryl-ETH[Dip]PC[NMeC][NMeK]([AEEA-AEEA-Dap-C18 diacid])[NMeF][NMeK]-NH2; disulfide 6-7)
0.1 to 0.5 µM | CC(C)CC(=O)N[C@@H](CCC(=O)O)C(=O)N[C@H](C(=O)N[C@@H](Cc1c[nH]cn1)C(=O)N[C@H](C(=O)N1CCC[C@H]1C(=O)N[C@@H]1C(=O)N[C@H](C(=O)N(C)[C@@H](CCCCNC(=O)COCCOCCNC(=O)COCCOCCNC(=O)[C@H](CN)NC(=O)CCCCCCCCCCCCCCCCC(=O)O)C(=O)N[C@H](CC(=O)N[C@H](CCCCN)C(N)=O)Cc2ccccc2)C(C)(C)SSC1(C)C)C(c1ccccc1)c1ccccc1)[C@@H](C)O [compound 273] (Isovaleryl-ETH[Dip]P[Pen][Pen][NMeK]([AEEA-AEEA-Dap-C18 diacid])[β3hF][dK]-NH2; disulfide 6-7)
